Measured values reported in US20150233930A1, “METHODS AND COMPOSITIONS EMPLOYING SECRETED PROTEINS THAT REFLECT AUTOPHAGY DYNAMICS WITHIN TUMOR CELLS” (The Wistar Institute of Anatomy and Biology, priority 2014, published 2015).

Tests used:
[1] = test system: 1205Lu cells; experiment: LC3 immunoblotting of lysates from cells treated with rapamycin or hydroxychloroquine; type: cell-based, human; settings: 1205Lu cells compared to WM793 cells
Protocol: Melanoma cell lines […] and 1205Lu (as well as other cell lines identified in the appropriate figures) were maintained in RPMI 1640 (Invitrogen) supplemented with 10% fetal bovine serum (Sigma), 50 μg/mL gentamicin, and 25 mmol/L HEPES in the presence of 5% CO2 at 37° C. The 3D spheroid cultures were prepared as previously described^1 and cell death was evaluated using the Live/Dead Assay (Invitrogen). Electron microscopy was performed as previously described^1. Immunoblotting was performed on whole cell lysates as previously described. A commercially available polyclonal antibody against actin (I-19) was used (Santa Cruz). A polyclonal antibody against LC3 that was produced by QCB Biologicals was used. Band densities from Western Blots were quantified using Adobe Photoshop CS4 Extended.
The genetically paired melanoma cell lines, WM793 and 1205Lu, were used for initial secretome comparisons due to the inherent genetic heterogeneity across unrelated melanoma cell lines. The 1205Lu cell line is a subclone derived from the lung metastasis of WM793 in athymic mice, thus minimizing protein expression changes caused by genetic differences^14. To determine autophagic capacity in these paired cell lines, electron microscopy of WM793 and 1205Lu grown in complete medium was used to quantify AVs (FIG. 1A). […]

[2] = test system: tumor cells; settings: preclinical models of melanoma; cited from earlier work

For CCN(CCO)CCCC(C)Nc1ccnc2cc(Cl)ccc12 (centres unmarked) [hydroxychloroquine], the LC3II/LC3I ratio [1] is listed as “increases” and the “effect on cytotoxic effects of alkylating agents” value [2] is listed as “augment the cytotoxic effects of alkylating agents”.
